Patent US20100216779A1 (GLAXOSMITHKLINE LLC, priority 2007, published 2010)

Tested on: various cell lines of different tumor origins
Test: Inhibition of cell proliferation, InCell Analyzer assay
Assay type: cell-based
Procedure: C. Inhibition of Cell Proliferation
For InCell Analyser assay, various cell lines of different tumor origins were grown to 70-80% confluency in appropriate culture media containing 10% fetal bovine serum at 37° C. in a 5% CO2 incubator. On day-1, cells were seeded at 2 densities in 384-well plates and incubated at 37° C. overnight. Stock compound plates were prepared in advance which contained dimethyl sulfoxide (DMSO) alone and a 9-point half-log decreasing dose range of the compound of Example 22 in DMSO. The compound plates were stored at −80° C. and each plate was only thawed once and used. On day 0, the main assay plates received compound or DMSO via a sonic delivery system (ECHO). The highest final concentration of compound of the dose range in the culture plates was 10 uM. These plates were cultured at 37° C. for 3 days. […] On day 3, the compound treated plates were stained and fixed to measure proliferation, apoptosis, and mitotic index using an InCell1000 analyser. A nuclear stain was used to identify cells in the wells. By counting the number of nuclei, the proliferation index of compound treated groups were calculated as a percentage relative to the DMSO control, which was set to 100%. The IC50 values were calculated using model 205 in ExcelFit.

An IC50 (Homo sapiens, SW48, SW48, Colon) of less than 1 µM, an IC50 (Homo sapiens, SW480, SW480, Colon) of 1 to 5 µM and an IC50 (Homo sapiens, SW684, SW684, Sarcoma) greater than 5 µM were found for `COc1cc(N2CCC(N3CCCCC3)CC2)ccc1Nc1nccc(-c2c(-c3cccc(C(=O)Nc4c(F)cccc4F)c3)nc3ccccn23)n1` [Example 22, 3-[3-(2-{[4-(1,4′-bipiperidin-1′-yl)-2-(methyloxy)phenyl]amino}-4-pyrimidinyl)imidazo[1,2-a]pyridin-2-yl]-N-(2,6-difluorophenyl)benzamide] in this work. It also gave an IC50 (Homo sapiens, SW756, SW756, Cervix) of 1 to 5 µM, an IC50 (Homo sapiens, SW780, SW780, Bladder) greater than 5 µM and an IC50 (Homo sapiens, SW837, SW837, Colon) greater than 5 µM. For the same molecule, the IC50 (Homo sapiens, SW872, SW872, Sarcoma) was 1 to 5 µM, the IC50 (Homo sapiens, SW948, SW948, Colon) was greater than 5 µM and the IC50 (Homo sapiens, SW 954, SW954, Vulva) was less than 1 µM. The IC50 (Homo sapiens, SW 962, SW962, Vulva) was less than 1 µM, the IC50 (Homo sapiens, SW982, SW982, Sarcoma) was greater than 5 µM and the IC50 (Homo sapiens, SW1088, SW1088, glioma) was 1 to 5 µM. For the same molecule, the IC50 (Homo sapiens, SW 1116, SW1116, Colon) was greater than 5 µM, the IC50 (Homo sapiens, SW1353, SW1353, Sarcoma) was greater than 5 µM and the IC50 (Homo sapiens, SW1417, SW1417, Colon) was less than 1 µM. The IC50 (Homo sapiens, SW1463, SW1463, Rectum) was less than 1 µM, the IC50 (Homo sapiens, SW1783, SW1783, glioma) was greater than 5 µM and the IC50 (Homo sapiens, SW1990, SW1990, Pancreas) was 1 to 5 µM. For the same molecule, the IC50 (Homo sapiens, SW-403, SW403, Colon) was less than 1 µM, the IC50 (Homo sapiens, SW-620, SW620, Colon) was 1 to 5 µM and the IC50 (Homo sapiens, SiHa, Cervix) was 1 to 5 µM. It also gave an IC50 (Homo sapiens, T47D, T-47D, Breast) of 1 to 5 µM, an IC50 (Homo sapiens, THP-1, THP-1, AML) of 1 to 5 µM and an IC50 (Homo sapiens, TK-10, TK-10, Kidney) of 1 to 5 µM. It also gave an IC50 (Homo sapiens, U2OS, U-2OS, Sarcoma) of 1 to 5 µM, an IC50 (Homo sapiens, U138-MG, U-138MG, glioma) greater than 5 µM and an IC50 (Homo sapiens, U-87 MG, glioma) greater than 5 µM. For the same molecule, the IC50 (Homo sapiens, U-251, U251, glioma) was 1 to 5 µM, the IC50 (Homo sapiens, UACC-62, UACC-62, Skin) was 1 to 5 µM and the IC50 (Homo sapiens, UACC-257, UACC-257, Skin) was 1 to 5 µM. It also gave an IC50 (Homo sapiens, UACC-812, UACC-812, Breast) greater than 5 µM, an IC50 (Homo sapiens, UMUC3, UM-UC-3, Bladder) greater than 5 µM and an IC50 (Homo sapiens, UO-31, UO-31, Kidney) of 1 to 5 µM. It also gave an IC50 (Homo sapiens, WM-115, WM115, Skin) greater than 5 µM, an IC50 (Homo sapiens, YAPC, Pancreas) greater than 5 µM and an IC50 (Homo sapiens, ZR-75-1, ZR-75-1, Breast) greater than 5 µM. For the same molecule, the IC50 (J82, Bladder) was 1 to 5 µM, the IC50 (JAR, Placenta) was 1 to 5 µM and the IC50 (KHOS-240S, Sarcoma) was 1 to 5 µM. The IC50 (KLE, Uterus) was 1 to 5 µM, the IC50 (KPL-1, KPL-1, Breast) was 1 to 5 µM and the IC50 (M14, Skin) was 1 to 5 µM. For the same molecule, the IC50 (MC-CAR, #N/A) was 1 to 5 µM, the IC50 (ML-2, AML) was greater than 5 µM and the IC50 (MT-3, Breast) was less than 1 µM. The IC50 (MX-1, Breast) was 1 to 5 µM, the IC50 (NALM-1, CML blast phase) was 1 to 5 µM and the IC50 (NCI-H322, NCI-H322, Lung) was less than 1 µM. The IC50 (NCI-H660, NCI-H660, Prostate) was greater than 5 µM, the IC50 (RD, Sarcoma - rhabdomyosarcoma) was greater than 5 µM and the IC50 (RD-ES, Sarcoma) was less than 1 µM. It also gave an IC50 (RL, lymphoma - non-Hodgkin) of 1 to 5 µM, an IC50 (SCC12, SCC-12, H&N) greater than 5 µM and an IC50 (SCC-13, SCC-13, H&N) greater than 5 µM. For the same molecule, the IC50 (SCLC-3, Lung) was 1 to 5 µM, the IC50 (SH-4, Skin) was 1 to 5 µM and the IC50 (SKO-007, SKO-007, Myeloma) was 1 to 5 µM. For the same molecule, the IC50 (SR, lymphoma - large cell immunoblastic) was 1 to 5 µM, the IC50 (SW579, SW579, Thyroid) was 1 to 5 µM and the IC50 (T24, Bladder) was greater than 5 µM. It also gave an IC50 (T-cell, MJ, lymphoma - cutaneous T cell) of 1 to 5 µM, an IC50 (TE 381.T, TE381.T, Sarcoma - rhabdomyosarcoma) of less than 1 µM and an IC50 (TO 175.T, TO175.T, Skin) of 1 to 5 µM. For the same molecule, the IC50 (U266B1, Myeloma) was 1 to 5 µM and the IC50 (Y79, Eye) was greater than 5 µM.
